These are literature values, as cited in patent US20240027453A1, “METHOD FOR DETECTION AND QUANTITATIVE MONITORING OF INFECTIONS WITH HERPESVIRUSES” (The Trustees of Princeton University, priority 2020, published 2024).

Each structure is given as a SMILES string.

Series [1] relates to HCMV. To be noted: cited from earlier work.
The test system of series [2] is HCMV. The conditions noted are these: in MRC5 cells; cited from earlier work.

On to `Nc1c(S(=O)(=O)c2ccccc2)c2nc3ccccc3nc2n1-c1ccc(F)cc1` [CAY10602], for which the “decrease in HCMV titers” value in the series on HCMV [1] ([…] CAY10602, 50 μM trans-Resveratrol) is reported as roughly 50%. Further, the HCMV titers entry with HCMV [1] is reported as “decreased”.
For orientation: IC50 means the concentration needed to halve the response being measured. Turning to `Nc1ccn(C[C@@H](CO)OCP(=O)(O)O)c(=O)n1` [CDV, cidofovir], the IC50 in the series on HCMV [2] was roughly 0.5 µM.
